These results are taken from BigSolDB 2.1.

Turning to `COC(=O)/C=C/c1ccc(O)c(OC)c1`, the solubility (mole fraction) reads like this: (in ethyl acetate, 303.15 K) 0.217; (in ethyl acetate, 307.15 K) 0.247; (in ethyl acetate, 312.15 K) 0.279; (in ethyl acetate, 317.15 K) 0.305; (in ethyl acetate, 321.15 K) 0.334; (in n-hexane, 303.15 K) 0.00112. Further, the solubility (mole fraction) amounted to 0.00211 (in n-hexane, 307.15 K); 0.00251 (in n-hexane, 312.15 K); 0.00354 (in n-hexane, 317.15 K); 0.00416 (in n-hexane, 321.15 K); 0.215 (in tert-amyl alcohol, 303.15 K); 0.246 (in tert-amyl alcohol, 307.15 K). For the same molecule, the solubility (mole fraction) runs as follows: (in tert-amyl alcohol, 312.15 K) 0.287; (in tert-amyl alcohol, 317.15 K) 0.312; (in tert-amyl alcohol, 321.15 K) 0.342; (in tert-butanol, 303.15 K) 0.182; (in tert-butanol, 307.15 K) 0.209; (in tert-butanol, 312.15 K) 0.247. In addition, the solubility (mole fraction) reads like this: (in tert-butanol, 317.15 K) 0.295; (in tert-butanol, 321.15 K) 0.325.
Turning to `COC(=O)/C=C/c1ccc(O)cc1`, the solubility (mole fraction) by setting is: (in ethyl acetate, 303.15 K) 0.0856; (in ethyl acetate, 307.15 K) 0.0915; (in ethyl acetate, 312.15 K) 0.0997; (in ethyl acetate, 317.15 K) 0.108; (in ethyl acetate, 321.15 K) 0.113; (in n-hexane, 303.15 K) 2.81e-05. The solubility (mole fraction) is, setting by setting: (in n-hexane, 307.15 K) 4.38e-05; (in n-hexane, 312.15 K) 6.18e-05; (in n-hexane, 317.15 K) 8.13e-05; (in n-hexane, 321.15 K) 0.000124; (in tert-amyl alcohol, 303.15 K) 0.116; (in tert-amyl alcohol, 307.15 K) 0.126. Besides, the solubility (mole fraction) runs as follows: (in tert-amyl alcohol, 312.15 K) 0.154; (in tert-amyl alcohol, 317.15 K) 0.174; (in tert-amyl alcohol, 321.15 K) 0.201; (in tert-butanol, 303.15 K) 0.0977; (in tert-butanol, 307.15 K) 0.113; (in tert-butanol, 312.15 K) 0.128. Besides, the solubility (mole fraction) (in tert-butanol, 317.15 K) was determined as 0.143 and the solubility (mole fraction) (in tert-butanol, 321.15 K) turned out to be 0.171.
Consider `COC(=O)/C=C/c1cc(OC)c(O)c(OC)c1`, for which the solubility (mole fraction) runs as follows: (in ethyl acetate, 303.15 K) 0.117; (in ethyl acetate, 307.15 K) 0.128; (in ethyl acetate, 312.15 K) 0.147; (in ethyl acetate, 317.15 K) 0.157; (in ethyl acetate, 321.15 K) 0.168; (in n-hexane, 303.15 K) 0.000292. For the same molecule, the solubility (mole fraction) was 0.000383 (in n-hexane, 307.15 K); 0.000495 (in n-hexane, 312.15 K); 0.000743 (in n-hexane, 317.15 K); 0.000804 (in n-hexane, 321.15 K); 0.0264 (in tert-amyl alcohol, 303.15 K); 0.0336 (in tert-amyl alcohol, 307.15 K). Moreover, the solubility (mole fraction) is, setting by setting: (in tert-amyl alcohol, 312.15 K) 0.0644; (in tert-amyl alcohol, 317.15 K) 0.0926; (in tert-amyl alcohol, 321.15 K) 0.14; (in tert-butanol, 303.15 K) 0.0184; (in tert-butanol, 307.15 K) 0.0234; (in tert-butanol, 312.15 K) 0.0523. For the same molecule, the solubility (mole fraction) reads like this: (in tert-butanol, 317.15 K) 0.0743; (in tert-butanol, 321.15 K) 0.0973.
